From patent US10961189B2, “Spiro-lactam NMDA receptor modulators and uses thereof” (Aptinyx Inc., priority 2016, dated 2021)
Read-outs that look alike come from different tables or passages of the source.

Key:
[1] = oral pharmacokinetics (plasma, brain, CSF); assay type: in vivo, Sprague Dawley rats; conditions: rat, per os 10 mg/kg; for AUC(0-t) / bioavailability / Tmax / Cmax: Sprague-Dawley, plasma, po; for Tmax: normal saline (* in 5% NMP, 5% Solutol HS, 90% normal saline), read-out: Tmax; for Cmax: read-out: Cmax
Protocol: In another experiment, Sprague Dawley rats were dosed per os using a normal saline formulation containing 10 mg/kg of the compounds identified in the table below (except for the compounds marked with an asterisk (“*”) that were delivered in 5% NMP, 5% Solutol® HS and 90% normal saline formulation). Plasma, brain, and CSF samples were analyzed at various time points over a 24 hour period.

[2] = IV pharmacokinetics; assay type: in vivo, Sprague Dawley rats; conditions: rat, normal saline (* in 5% NMP, 5% Solutol HS, 90% normal saline); for Vd: read-out: Vss
Text: The table below summarizes the results of the IV pharmacokinetics.

[3] = tested on: Sprague Dawley rats; experiment: Bennett model of mechanical analgesia (sciatic nerve chronic constriction, paw withdrawal threshold); assay type: in vivo, rat;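 also: log paw withdrawal threshold scaled from vehicle group mean (0%) to naive 15 g value (100%)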
Protocol: The Bennett model of mechanical analgesia is used to assess the analgesic effects of compounds as measured by paw withdrawal threshold. Bennett GJ, Xie YK, “A peripheral mononeuropathy in rat that produces disorders of pain sensation like those seen in man,” Pain 33:87-107, 1988. […] Vehicle animals receive the surgery and then receive vehicle rather than test compound. Animals were tested 1 hr, 24 h and 1 wk post-test compound or vehicle administration.
Male 2-3 month old Sprague Dawley rats were used. Harlan was the supplier for all studies. Rats were housed in Lucite cages with aspen wood chip bedding, maintained on a 12:12 light:dark cycle (lights on at 5 AM), and given ad libitum access to Purina lab chow (USA) and tap water throughout the study.
Rats were anesthetized using inhaled isoflurane (2.5%). Sciatic nerve chronic constriction nerve injury surgery was performed as previously described (Bennett and Xie, 1988). An incision (˜1.5 cm in length) was made with a scalpel blade dorsally through skin on the right hind limb, parallel and posterior to femur. Using a small pointed hemostat, the biceps femoris and gluteus superficialis muscles were separated. Using curved blunt forceps, the common sciatic nerve was isolated and exposed. For the mechanical analgesia studies, the whole sciatic nerve was ligated. Using hemostats/forceps and chromic gut (5-0), the nerve was loosely ligated with a square knot; 3 ligatures, 1 mm apart were placed on the nerve. […] Testing occurred approximately 2 weeks post-surgery.
During testing, rats were acclimated to the surface of a suspended wire mesh grid (1 cm×1 cm, with the wire being 0.3 cm in diameter) for 15-20 min. Starting from the smallest, each Von Frey filament was pressed perpendicularly to the plantar surface of the affected (ipsilateral) hind paw until slightly bent and then held for 6 second. If an obvious hind paw withdrawal or a flinching behavior immediately after the withdrawal of the filament was not observed, the next larger filament was used in the same manner. In case of a response, a lower filament was used. This was repeated until six responses were collected.
For all studies, animals were baselined prior to study start to test for allodynia (defined as a paw withdrawal threshold under 5). A subset of animals was tested with gabapentin (150 mg/kg, PO) to ensure at least 50% analgesia. Once it was confirmed animals were ready for study initiation, animals were balanced across groups. All study investigators were blind to treatment conditions. Animals were dosed with 0.1, 1 or 10 mg/kg of test compound via oral gavage (PO), control sets of animals were dosed with gabapentin (150 mg/kg, PO) or vehicle (0.5% Na-CMC in 0.9% sterile saline, PO). Testing occurred 1 h post-dosing with animals retested 24 hrs and 1 week post-dosing. The percent analgesia calculations for each animal were made using the following equation: % analgesia=[(log(x)−y)/((log (z)−y)]*100, where x=the paw withdrawal threshold for the drug-treated animal in grams, y=the average of the log(x) values for the vehicle treated group, and z=the paw withdrawal threshold for naïve animals in grams (historical value of 15 used).
The results are shown in the table below where the percentage of analgesia is measured at 1 hour, 24 hours, and 1 week after compound administration. Since each study had its own gabapentin control group, an example gabapentin control value is shown.

[4] = target: T1, NMDAR2B (Homo sapiens, UniProt Q13224); experiment: [3H]MK-801 binding in NMDAR expressing HEK cell membranes (facilitation of NMDAR activation); assay type: biochemical; conditions: 50 μM glutamate; for EC50: read-out: B: log EC50 (converted); for Emax: 0.25 h, read-out: A: % maximal [3H]MK-801 binding relative to 1 mM glycine
T1 construct: expressed in transfected cells; host or cells: HEK cells (membrane extract)
T1 sequence (Q13224 27-1484, species assumed, other chains not shown): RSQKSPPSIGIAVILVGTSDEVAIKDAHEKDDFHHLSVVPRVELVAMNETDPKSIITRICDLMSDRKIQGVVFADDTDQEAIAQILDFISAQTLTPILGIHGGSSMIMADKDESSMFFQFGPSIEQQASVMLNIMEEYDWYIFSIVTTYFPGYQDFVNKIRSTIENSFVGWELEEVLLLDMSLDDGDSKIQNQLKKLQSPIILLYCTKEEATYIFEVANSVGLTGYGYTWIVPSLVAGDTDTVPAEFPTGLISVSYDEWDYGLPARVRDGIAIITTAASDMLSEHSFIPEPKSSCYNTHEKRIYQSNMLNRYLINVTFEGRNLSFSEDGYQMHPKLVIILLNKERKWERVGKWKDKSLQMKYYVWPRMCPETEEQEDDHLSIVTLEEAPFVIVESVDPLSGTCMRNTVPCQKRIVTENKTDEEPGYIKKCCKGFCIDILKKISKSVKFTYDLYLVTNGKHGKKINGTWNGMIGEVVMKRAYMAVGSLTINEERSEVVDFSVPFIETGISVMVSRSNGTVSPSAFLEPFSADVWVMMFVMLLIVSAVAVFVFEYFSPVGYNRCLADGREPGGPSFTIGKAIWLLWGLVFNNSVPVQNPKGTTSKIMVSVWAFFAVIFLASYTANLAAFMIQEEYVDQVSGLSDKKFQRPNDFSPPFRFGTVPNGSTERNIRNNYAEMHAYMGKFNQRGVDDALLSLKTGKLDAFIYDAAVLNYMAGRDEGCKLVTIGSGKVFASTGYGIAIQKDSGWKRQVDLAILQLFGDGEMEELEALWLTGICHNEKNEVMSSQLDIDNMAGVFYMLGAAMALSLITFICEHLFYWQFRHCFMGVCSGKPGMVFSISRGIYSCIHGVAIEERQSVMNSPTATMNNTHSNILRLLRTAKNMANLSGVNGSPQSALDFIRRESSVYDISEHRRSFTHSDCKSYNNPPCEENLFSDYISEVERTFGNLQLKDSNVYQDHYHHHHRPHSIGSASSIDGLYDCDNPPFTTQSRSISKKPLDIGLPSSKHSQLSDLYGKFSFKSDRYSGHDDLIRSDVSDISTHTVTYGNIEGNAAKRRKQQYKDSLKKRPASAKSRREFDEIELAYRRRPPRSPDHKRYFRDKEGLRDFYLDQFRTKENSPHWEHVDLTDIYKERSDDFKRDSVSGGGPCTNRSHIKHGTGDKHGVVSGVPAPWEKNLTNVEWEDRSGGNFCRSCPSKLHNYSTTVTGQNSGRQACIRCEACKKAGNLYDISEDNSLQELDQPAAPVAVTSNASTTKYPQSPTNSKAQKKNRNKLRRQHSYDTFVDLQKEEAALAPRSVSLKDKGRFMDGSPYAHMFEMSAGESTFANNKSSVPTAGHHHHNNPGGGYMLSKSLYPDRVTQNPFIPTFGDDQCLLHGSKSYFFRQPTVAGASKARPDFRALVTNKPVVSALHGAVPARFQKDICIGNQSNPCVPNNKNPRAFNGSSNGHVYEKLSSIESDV
In short: (§1)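 HEK membranes (300 μg) expressing the NMDAR subunit were preincubated 15 min at 25 °C with 50 μM glutamate and compound ([…]−1×10^−7M), then with 0.3 μCi [3H]MK-801 for 15 min under nonequilibrium conditions and filtered. Baseline-subtracted DPM was expressed as % of 1 mM glycine, and EC50 and % maximal binding came from three-parameter curve fits.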

[5] = target: T2, NMDAR2A (Homo sapiens, UniProt Q12879); experiment: as above; assay type: biochemical; conditions: 50 μM glutamate; for Emax: 0.25 h, read-out: A: % maximal [3H]MK-801 binding relative to 1 mM glycine; for EC50: read-out: B: log EC50 (converted)
T2 construct: expressed in transfected cells; host or cells: HEK cells (membrane extract)
T2 sequence (Q12879 23-1464, species assumed, other chains not shown): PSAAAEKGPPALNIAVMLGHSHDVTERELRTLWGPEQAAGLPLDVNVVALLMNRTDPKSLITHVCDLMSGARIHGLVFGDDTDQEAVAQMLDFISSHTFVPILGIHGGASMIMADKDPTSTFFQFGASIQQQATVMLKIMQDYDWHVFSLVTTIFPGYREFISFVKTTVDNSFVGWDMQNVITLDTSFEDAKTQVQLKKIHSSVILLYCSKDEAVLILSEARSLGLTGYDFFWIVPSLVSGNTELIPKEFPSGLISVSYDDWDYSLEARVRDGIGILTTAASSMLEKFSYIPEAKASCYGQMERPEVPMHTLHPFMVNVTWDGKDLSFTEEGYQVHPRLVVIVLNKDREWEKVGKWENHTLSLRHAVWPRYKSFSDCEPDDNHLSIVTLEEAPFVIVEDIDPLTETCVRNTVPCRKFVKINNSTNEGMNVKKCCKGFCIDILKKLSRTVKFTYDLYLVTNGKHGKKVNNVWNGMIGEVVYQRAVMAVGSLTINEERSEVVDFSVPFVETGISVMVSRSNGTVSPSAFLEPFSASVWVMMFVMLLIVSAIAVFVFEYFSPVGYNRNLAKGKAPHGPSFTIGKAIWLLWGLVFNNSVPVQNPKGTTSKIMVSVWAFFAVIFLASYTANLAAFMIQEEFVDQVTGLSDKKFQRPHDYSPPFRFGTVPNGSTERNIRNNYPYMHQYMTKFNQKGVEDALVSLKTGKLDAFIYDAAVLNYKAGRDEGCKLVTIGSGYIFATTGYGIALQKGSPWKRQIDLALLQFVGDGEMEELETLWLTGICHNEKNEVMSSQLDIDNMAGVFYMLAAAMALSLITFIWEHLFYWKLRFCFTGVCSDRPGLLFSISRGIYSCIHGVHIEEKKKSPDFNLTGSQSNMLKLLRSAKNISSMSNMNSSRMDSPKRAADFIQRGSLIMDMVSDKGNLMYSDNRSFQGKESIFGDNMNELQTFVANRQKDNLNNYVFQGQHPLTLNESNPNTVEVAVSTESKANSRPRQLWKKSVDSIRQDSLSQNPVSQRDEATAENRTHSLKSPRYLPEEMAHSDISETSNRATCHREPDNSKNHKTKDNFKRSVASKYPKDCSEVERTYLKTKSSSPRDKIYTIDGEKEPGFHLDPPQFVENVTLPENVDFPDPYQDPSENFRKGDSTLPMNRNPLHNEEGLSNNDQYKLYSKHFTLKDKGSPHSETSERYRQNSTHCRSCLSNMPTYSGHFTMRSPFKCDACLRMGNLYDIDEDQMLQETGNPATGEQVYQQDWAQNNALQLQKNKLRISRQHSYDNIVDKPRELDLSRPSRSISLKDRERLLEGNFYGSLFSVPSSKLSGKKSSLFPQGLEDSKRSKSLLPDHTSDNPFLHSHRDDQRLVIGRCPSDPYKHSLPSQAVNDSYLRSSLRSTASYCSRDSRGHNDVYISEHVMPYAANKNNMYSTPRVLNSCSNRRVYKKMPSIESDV
In short: as §1

[6] = Sprague-Dawley, in vivo, iv, 2 mg/kg
[7] = Sprague-Dawley, in vivo, iv, 2 mg/kg, read-out: C0
[8] = Sprague-Dawley, in vivo, intravenous 2 mg/kg

Row | Compound | AUC(0-t) ([1]; 10 mg/kg) | bioavailability ([1]; 10 mg/kg) | Tmax ([1]; 10 mg/kg) | Cmax ([1]; 10 mg/kg) | CSF Cmax [1] | Brain Cmax [1] | AUC(0-t) [2, 6] | CI ([2]; intravenous 2 mg/kg) | % analgesia ([3]; 0.1 mg/kg PO, 1 wk) | % analgesia ([3]; 0.1 mg/kg PO, 1 h) | % analgesia ([3]; 0.1 mg/kg PO, 24 h) | % analgesia ([3]; 1 mg/kg PO, 1 wk) | % analgesia ([3]; 1 mg/kg PO, 1 h) | % analgesia ([3]; 1 mg/kg PO, 24 h) | % analgesia ([3]; 10 mg/kg PO, 1 wk) | % analgesia ([3]; 10 mg/kg PO, 1 h) | % analgesia ([3]; 10 mg/kg PO, 24 h) | EC50 [4] | Emax [4] | Emax [5] | further results
1 | CC1CCC2(CC1)CNC2=O (racemic) [Compound AD, 7-methyl-2-azaspiro[3.5]nonan-1-one] | 4580 ng·h/mL | 67% | 25.2 min | 2030 ng/mL | 1009.2 ng/mL | 1832.2 ng/mL | 1360 ng·h/mL | 24.57 mL/min/kg | 0% | 18.4% | 4.7% | 17.9% | 15.4% | 13.8% | 15.5% | 15.3% | 7.6% | ≥ 1 nM | < 100% | 0% | half-life [2, 6]: 47.4 min; C0 [2, 7]: 2060 ng/mL; Vd [2, 6]: 0.97 L/kg
2 | O=C1NCC12CCC(OCc1ccccc1)CC2 (single isomer, unassigned) [AI, 7-(benzyloxy)-2-azaspiro[3.5]nonan-1-one] | 5900 ng·h/mL | 94% | 30 min | 3970 ng/mL | 269.17 ng/mL | 1087.9 ng/mL | 1260 ng·h/mL | 26.19 mL/min/kg | 7.7% | 5.3% | 7.7% | 10.2% | 40.4% | 23.4% | 22.0% | 50.0% | 33.2% | < 1 nM | < 100% | < 100% | half-life [2, 6]: 82.2 min; C0 [2, 7]: 4330 ng/mL; Vd [2, 6]: 0.75 L/kg; EC50 [5]: < 1 nM
3 | C[C@@H](O)[C@H](NC1CCC2(CC1)CNC2=O)C(N)=O (single isomer, unassigned) [AP] | 2050 ng·h/mL | 15% | 120 min | 625 ng/mL | 80.46 ng/mL | 0 ng/mL | – | – | – | – | – | – | – | – | 0% | 28.0% | 0% | < 1 nM | < 100% | < 100% | AUClast ([2]; intravenous 2 mg/kg, 2 mg/kg): 2941 ng·h/mL; C0 ([2]; intravenous 2 mg/kg, 2 mg/kg): 6420.4 ng/mL; CI ([2]; intravenous 2 mg/kg, 2 mg/kg): 11.21 mL/min/kg; T1/2 ([2]; intravenous 2 mg/kg, 2 mg/kg): 166 min; Vss ([2]; intravenous 2 mg/kg, 2 mg/kg): 0.92 L/kg; EC50 [5]: < 1 nM
4 | COc1ccc(CN2CC3(CCC(O)CC3)C2=O)cc1 (stereo not shown) [AG] | – | – | – | – | 217.3 ng/mL | 307.49 ng/mL | – | 51.36 mL/min/kg | 1.7% | 26.7% | 14.8% | 0% | 41.5% | 23.7% | 0% | 56.9% | 26.7% | < 1 nM | < 100% | < 100% | bioavailability [1]: 41%; Tmax [1]: 15 min; AUC(0-t) [1]: 1330 ng·h/mL; Cmax [1]: 1930 ng/mL; AUC(0-t) [2, 8]: 650 ng·h/mL; half-life [2, 8]: 24 min; C0 ([2]; Sprague-Dawley, in vivo, intravenous 2 mg/kg, read-out: C0): 2650 ng/mL; Vd [2, 8]: 0.7 L/kg; EC50 [5]: ≥ 1 nM
5 | O=C1NCC12CCC(O)CC2 (stereo not shown) [AL, 7-hydroxy-2-azaspiro[3.5]nonan-1-one] | 19300 ng·h/mL | 97% | 60 min | 9480 ng/mL | 7532 ng/mL | 3672 ng/mL | 6220 ng·h/mL | 5.4 mL/min/kg | 3.1% | 20.9% | 10.8% | 6.6% | 52.7% | 14.4% | 1.1% | 61.9% | 13.8% | < 1 nM | – | – | half-life [2, 6]: 224 min; C0 [2, 7]: 3990 ng/mL; Vd [2, 6]: 0.83 L/kg; A: % maximal [3H]MK-801 binding relative to 1 mM glycine [4]: + (<100%=+); A: % maximal [3H]MK-801 binding relative to 1 mM glycine [5]: − (−=0)
